Reference: patent US20010046478A1, “Antiinfective combinations and their use for the topical treatment of fungal infections of the toenails and fingernails” (priority 2000, published 2001)

Tests used:
[1] = Amount of antimycotic in the nail after topical application of the lacquer compositions, HPLC after extraction of distal nail material; assay type: in vivo, human
Experimental: The amount of antimycotic in the nail after application of the compositions according to the invention was determined by HPLC measurements after extraction of distal nail material obtained on cutting the nails of volunteers.
After treatment 2× a week for 6 weeks, the values found for the composition of Example 3 were as follows:
After treatment 2× a week for 2 weeks, the values found for the composition of Example 4 were as follows: […]

[2] = oral administration of 100 mg of itraconazole each day for 3 months; cited from earlier work
[3] = composition of Example 3, topical, treatment 2x a week for 6 weeks, distal nail material of volunteers

SMILES	amount of antimycotic in the nail [1, 3]	amount of antimycotic in the nail ([1]; composition of Example 4, topical, treatment 2x a week for 2 weeks, distal nail material of volunteers)	amount of antimycotic in the nail ([1]; human, in vivo, 2 weeks)	itraconazole concentration in the distal nail plate [2]
Cc1cc(C2CCCCC2)n(O)c(=O)c1 [ciclopirox, 6-cyclohexyl-1-hydroxy-4-methyl-2(1H)-pyridone]	140 μg/g of nail	92 μg/g of nail	–	–
OC(Cn1cncn1)(Cn1cncn1)c1ccc(F)cc1F [fluconazole, α-(2,4-difluorophenyl)-α-(1H-1,2,4-triazol-1-ylmethyl)-1H-1,2,4-triazol-1-ethanol]	–	–	17 μg/g of nail	–
CCC(C)n1ncn(-c2ccc(N3CCN(c4ccc(OCC5COC(Cn6cncn6)(c6ccc(Cl)cc6Cl)O5)cc4)CC3)cc2)c1=O (centres unmarked) [itraconazole]	800 ng/g of nail	–	–	100 ng/g of nail
